Test results reported in patent US6337348B1, “Oxy-vanadium (iv) complexes having spermicidal activity” (Parker Hughes Institute, priority 1998, dated 2002).

Legend:
Type in all cases: cell-based
human sperm [1] = assay: Mitochondrial transmembrane potential (JC-1 dye) flow cytometry; settings: 100 μM, 3 hours, 37° C.
Text: The loss of ΔΨm, a early marker for apoptosis was quantitated by flow cytometry using the lipophilic cationic dye, 5,5′,6,6′-tetrachloro 1,1′,3,3′-tetraethylbenzimidazolecarbocyanine iodide (JC-1) as described in Cossarizza et al., 1993, BBRC 197:40-45. This dye accumulates in the mitochondrial matrix under the influence of the ΔΨm. The molecule is able to selectively enter into mitochondria, the monomeric form emitting at 527 nm after excitation at 490 nm. However, depending on the membrane potential, JC-1is able to form J-aggregates that are associated with a large shift in emission (590 nm). The color of the dye changes reversibly from green to greenish orange at ΔΨm becomes more polarized.
To quantitate changes in sperm ΔΨm following oxovanadium (IV) complex exposure, highly motile fraction of sperm (10^7/ml) in duplicate aliquots, were incubated at 37° C. for 3 hours in BWW−0.3% BSA medium in the presence and absence of 100 μM each of the vanadocene complexes, VO(phen), VO(phen)2, VO(Me2—phen), VO(Me2—phen)2, VO(Cl—phen), VO(Cl—phen)2, VO(bipy), VO(bipy)2, VO(Me2—bipy), VO(Me2—bipy)2, and VO(Br,OH—acph)2. Following incubation, 10 μg/ml JC-1 (Molecular Probes, Eugene, Oreg.) was added from a stock solution in DMSO (1 mg/ml) to the sperm suspension and incubated for an additional 10 minutes. At the end of the incubation period, sperm were washed in Tyrode's salt solution (Sigma), resuspended in 200 μl, and analyzed by flow cytometry for JC-1-specific fluorescence. The excitation was at 488 nm; the emissions for green and red/orange fluorescence were 530 nm and 575 nm respectively. JC-1 monomer and aggregated fluorescence were simultaneously measured in oxovanadium (IV) complex-exposed and control sperm. The percentages of sperm positive for green, orange, and greenish orange were determined using the cutoff signals for JC-1 labeled motile sperm.

human sperm [2] = assay: Sperm immobilization assay (SIA), motility by CASA; settings: for EC50: read-out: EC50 (concentration that decreases the proportion of motile sperm by 50%), 3 hours incubation at 37° C., BWW-0.3% BSA, serial 2-fold dilutions 250 μM to 1.9 μM, mean of two experiments
Experimental: To evaluate the spermicidal effects of complexes of oxovanadium (IV), VO(phen), VO(phen)2, VO(Me2—phen), VO(Me2—phen)2, VO(Cl—phen), VO(Cl—phen)2], VO(bipy), VO(bipy)2, VO(Me2—bipy), VO(Me2—bipy)2, and VO(Br,OH—acph)2, a highly motile fraction of pooled donor sperm (N=5) was prepared by discontinuous (90−45%). Percoll gradient (Conception Technologies, San Diego, Calif.) centrifugation and the “swim-up” method as described previously (Aitken et al., 1989, Biol. Reprod. 40:183-197). All donor specimens were obtained after informed consent and in compliance with the guidelines of the Hughes Institutional Review Board. Motile sperm (≳10×10^6/ml) were suspended in 1 ml of Biggers, Whitten, and Whittingham's medium (BWW) containing 0.3% BSA (fraction V; Sigma Chemical Co., St. Louis, Mo.) in the presence and absence of serial 2-fold dilutions of test substance (250 μM−1.9 μM) in 0.25% dimethyl sulfoxide (DMSO). For each experiment, fresh stock solutions (100 mM) of vanadium compounds were prepared in DMSO. A corresponding volume of DMSO (0.25%) was added to control sperm suspension. After 3 hours of incubation at 37° C., the percentage of motile sperm was evaluated by computer-assisted sperm motion analysis (CASA) as described previously (Aitken et al., 1989, Supra). The percentages of motilities were compared with those of sham-treated control suspensions of motile sperm.
For CASA, 4 μl each of sperm suspension was loaded into two 20 μm Microcell chambers placed onto a counting chamber at 37° C. At least 5-8 fields per chamber were scanned for analysis using a Hamilton Thorne Integrated Visual Optical System (IVOS) version 10 instrument (Hamilton Thorne Research Inc., Danvers, Mass.). Each field was recorded for 30 seconds. The Hamilton Thorne computer calibrations were set at 30 frames at a frame rate of 30 images/seconds. Other settings were as follows: minimum contrast 8; minimum size 6; low-size gate, 1.0; high-size gate,2.9; low-intensity gate, 0.6; high-intensity gate, 1.4; phase-contrast illumination; low path velocity at 10 μm/seconds and threshold straightness at 80%; magnification factor, 1.95. The performance of the analyzer was periodically checked using the playback function.
Results for the various numerical sperm functional parameters are presented as mean±standard deviation (SD) values. Comparison between oxovanadium (IV) complex-treated and control sperm relative to sperm motility parameters and apoptosis were performed using paired, two-tailed Student's T-test. A p value of <0.05 was considered significant.

human sperm [3] = assay: FITC-Annexin V surface binding flow cytometry; settings: 100 μM, 12 hours, 37° C.
Experimental: In order to examine the expression of phosphatidyl serine on the sperm surface following oxovanadium (IV) complex exposure, surface binding of FITC-Annexin V was evaluated by flow cyotometry as described in Vermes et al., 1995, J. Immunol. Meth., […]:39-51. One ml aliquots of highly motile sperm (10^7) in triplicate were incubated in BWW−0.3% BSA at 37° C. for 12 hours with and without 100 μM of each of the oxovanadium (IV) complexes VO(phen), VO(phen)2, VO(Me2—phen), VO(Me2—phen)2, VO(Cl—phen), VO(Cl—phen)2, VO(bipy), VO(bipy)2, VO(Me2—bipy), VO(Me2—bipy)2, and VO(Br,OH—acph)2 in 0.1% DMSO. After exposure to these complexes, sperm were washed with 1% Tyrode's salt solution containing 1% BSA (1% TBSA), and the pellets were resuspended in the same medium. The sperm suspension was reacted for 30 minutes at room temperature with 6 μg/ml of FITC-conjugated recombinant human Annexin V (Caltag Laboratories, San Francisco, Calif.). After two washes in Tyrode's salt solution, sperm were resuspended in 1% TBSA containing 1 μg/ml propidium iodide (PI) and analyzed for surface-bound Annexin V and PI-permeability by quantitative flow cytometry using an argon laser for excitation of fluorescence. Annexin V and PI binding were simultaneously measured in oxovanadium (IV) complex-exposed and control sperm as described previously (de Lamirande et al., 1993, Fertil Seril 59:1291-1295). The percentages of sperm positive for Annexin V and PI were determined using the cutoff signals for membrane-intact motile sperm. Two separate experiments were performed to assess the surface expression of phosphatidyl serine following exposure of sperm to oxovanadium (IV) complexes.

Compound	EC50 (human sperm [2])	Annexin V positive sperm (%) (human sperm [3])	Annexin V positive sperm (%) (human sperm [3]; listed as VO(Cl—phen)2)	JC-1 aggregate-positive sperm (%) (human sperm [1])	fold more potent than N-9 (spermicidal activity) (human sperm [2]; identical experimental conditions)
(diaqua)(4,4′-dimethyl-2,2′-bipyridyl)oxovanadium (IV) sulfate [VO(Me2-bipy)]	83 µM	47%	–	88%	–
Clc1cc2cccnc2c2ncccc12.O.O.O=S(=O)([O-])[O-].[O]=[V+2] [VO(Cl-phen), (diaqua)(5-chloro-1,10-phenanthroline)oxovanadium (IV) sulfate]	39.1 µM	90%	–	39%	–
Clc1cc2cccnc2c2ncccc12.Clc1cc2cccnc2c2ncccc12.O.O=S(=O)([O-])[O-].[O]=[V+2] [VO(Cl-phen)2, (aqua)bis(5-chloro-1,10-phenanthroline)oxovanadium (IV) sulfate]	5.5 µM	99%	99%	35%	14 fold
O.O.O=S(=O)([O-])[O-].[O]=[V+2].c1ccc(-c2ccccn2)nc1 [VO(bipy), (diaqua)(2,2′-bipyridyl)oxovanadium (IV) sulfate]	118 µM	36%	–	95%	–
O.O=S(=O)([O-])[O-].[O-2].[V+4].c1ccc(-c2ccccn2)nc1.c1ccc(-c2ccccn2)nc1 [VO(bipy)2, (aqua)bis(2,2′-bipyridyl)oxovanadium (IV) sulfate]	35.3 µM	26%	–	94%	–
(aqua)bis(4,4′-dimethyl-2,2′-bipyridyl)oxovanadium (IV) sulfate [VO(Me2-bipy)2]	72.5 µM	78%	–	62%	–
bis(5′-bromo-2′-hydroxyacetophenone)oxovanadium (IV) [VO(Br,OH-acph)2]	13.4 µM	95%	–	83%	–

The next lines start with results.

EC50 (human sperm [2])	Annexin V positive sperm (%) (human sperm [3])	Annexin V positive sperm (%) (human sperm [3]; listed as VO(Cl—phen)2)	Compound	JC-1 aggregate-positive sperm (%) (human sperm [1])	fold more potent than N-9 (spermicidal activity) (human sperm [2]; identical experimental conditions)
20.5 µM	96%	–	Cc1ccnc2c1ccc1c(C)ccnc12.O.O.O=S(=O)([O-])[O-].[O]=[V+2] [VO(Me2-phen), (diaqua)(4,7-dimethyl-1,10-phenanthroline)oxovanadium (IV) sulfate]	38%	–
6.5 µM	98%	–	O.O=S(=O)([O-])[O-].[O]=[V+2].c1cnc2c(c1)ccc1cccnc12.c1cnc2c(c1)ccc1cccnc12 [VO(phen)2, (aqua)bis(1,10-phenanthroline)oxovanadium (IV) sulfate]	25%	–
37 µM	97%	–	O.O.O=S(=O)([O-])[O-].[O]=[V+2].c1cnc2c(c1)ccc1cccnc12 [VO(phen), (diaqua)(1,10-phenanthroline)oxovanadium (IV) sulfate]	35%	–
47.9 µM	17%	–	Cc1ccnc2c1ccc1c(C)ccnc12.Cc1ccnc2c1ccc1c(C)ccnc12.O.O=S(=O)([O-])[O-].[O-2].[V+4] [VO(Me2-phen)2, (aqua)bis(4,7-dimethyl-1,10-phenanthroline)oxovanadium (IV) sulfate]	63%	–
